# Legend:
# Klebsiella pneumoniae [1] = assay: Antibacterial activity against Klebsiella pneumoniae expressing CTX-M group 1 beta-lactamase by Etest method in presence of clavulanic acid; format: functional
# Klebsiella pneumoniae [2] = assay: Antibacterial activity against Klebsiella pneumoniae A expressing CTX-M group 1 beta-lactamase by Etest method; format: functional
# Escherichia coli [3] = assay: Antibacterial activity against rifampicin resistant Escherichia coli J53-2 by Etest method
# Escherichia coli [4] = assay: Antibacterial activity against Escherichia coli TrC C expressing Klebsiella pneumoniae C blaCTX-M beta-lactamase by Etest method in presence of clavulanic acid
# Klebsiella pneumoniae [5] = assay: Antibacterial activity against Klebsiella pneumoniae C expressing CTX-M group 1 beta-lactamase by Etest method in presence of clavulanic acid; format: functional
# Escherichia coli [6] = assay: Antibacterial activity against rifampicin resistant Escherichia coli J53-2 by Etest method in presence of clavulanic acid; format: functional
# Klebsiella pneumoniae [7] = assay: Antibacterial activity against Klebsiella pneumoniae B expressing CTX-M group 1 beta-lactamase by Etest method; format: functional
# Escherichia coli [8] = assay: Antibacterial activity against Escherichia coli TrC A expressing Klebsiella pneumoniae A blaCTX-M beta-lactamase by Etest method; format: functional
# Klebsiella pneumoniae [9] = assay: Antibacterial activity against Klebsiella pneumoniae D expressing CTX-M group 1 beta-lactamase by Etest method; format: functional
# Klebsiella pneumoniae [10] = assay: Antibacterial activity against Klebsiella pneumoniae D expressing CTX-M group 1 beta-lactamase by Etest method in presence of clavulanic acid; format: functional
# Klebsiella pneumoniae [11] = assay: Antibacterial activity against Klebsiella pneumoniae expressing CTX-M group 1 beta-lactamase by Etest method; format: functional
# Klebsiella pneumoniae [12] = assay: Antibacterial activity against Klebsiella pneumoniae B expressing CTX-M group 1 beta-lactamase by Etest method in presence of clavulanic acid; format: functional
# Escherichia coli [13] = assay: Antibacterial activity against Escherichia coli TrC A expressing Klebsiella pneumoniae A blaCTX-M beta-lactamase by Etest method in presence of clavulanic acid
# Escherichia coli [14] = assay: Antibacterial activity against Escherichia coli TrC B expressing Klebsiella pneumoniae B blaCTX-M beta-lactamase by Etest method in presence of clavulanic acid
# Klebsiella pneumoniae [15] = assay: Antibacterial activity against Klebsiella pneumoniae C expressing CTX-M group 1 beta-lactamase by Etest method; format: functional
# Escherichia coli [16] = assay: Antibacterial activity against Escherichia coli TrC B expressing Klebsiella pneumoniae B blaCTX-M beta-lactamase by Etest method; format: functional
# Escherichia coli [17] = assay: Antibacterial activity against Escherichia coli TrC C expressing Klebsiella pneumoniae C blaCTX-M beta-lactamase by Etest method; format: functional
# Klebsiella pneumoniae [18] = assay: Antibacterial activity against Klebsiella pneumoniae A expressing CTX-M group 1 beta-lactamase by Etest method in presence of clavulanic acid; format: functional
# Klebsiella pneumoniae [19] = assay: Antibacterial activity against Klebsiella pneumoniae D expressing CTX-M group 1 beta-lactamase by Etest method in presence of Tazobactam; format: functional
# Klebsiella pneumoniae [20] = assay: Antibacterial activity against Klebsiella pneumoniae C expressing CTX-M group 1 beta-lactamase by Etest method in presence of Tazobactam; format: functional
# Klebsiella pneumoniae [21] = assay: Antibacterial activity against Klebsiella pneumoniae expressing CTX-M group 1 beta-lactamase by Etest method in presence of Tazobactam; format: functional
# Klebsiella pneumoniae [22] = assay: Antibacterial activity against Klebsiella pneumoniae B expressing CTX-M group 1 beta-lactamase by Etest method in presence of Tazobactam; format: functional
# Klebsiella pneumoniae [23] = assay: Antibacterial activity against Klebsiella pneumoniae A expressing CTX-M group 1 beta-lactamase by Etest method in presence of Tazobactam; format: functional
# Escherichia coli [24] = assay: Antibacterial activity against rifampicin resistant Escherichia coli J53-2 by Etest method in presence of Tazobactam; format: functional
# Escherichia coli [25] = assay: Antibacterial activity against Escherichia coli TrC C expressing Klebsiella pneumoniae C blaCTX-M beta-lactamase by Etest method in presence of Tazobactam; format: functional
# Escherichia coli [26] = assay: Antibacterial activity against Escherichia coli TrC A expressing Klebsiella pneumoniae A blaCTX-M beta-lactamase by Etest method in presence of Tazobactam; format: functional
# Escherichia coli [27] = assay: Antibacterial activity against Escherichia coli TrC B expressing Klebsiella pneumoniae B blaCTX-M beta-lactamase by Etest method in presence of Tazobactam; format: functional
Structure (SMILES),MIC (Klebsiella pneumoniae [1]) [µg/mL],MIC (Klebsiella pneumoniae [2]) [µg/mL],MIC50 (Klebsiella pneumoniae [2]) [µg/mL],MIC90 (Klebsiella pneumoniae [2]) [µg/mL],MIC (Escherichia coli [3]) [µg/mL],MIC (Klebsiella pneumoniae [7]) [µg/mL],MIC50 (Klebsiella pneumoniae [7]) [µg/mL],MIC90 (Klebsiella pneumoniae [7]) [µg/mL],MIC (Escherichia coli [8]) [µg/mL],MIC (Klebsiella pneumoniae [9]) [µg/mL],MIC50 (Klebsiella pneumoniae [9]) [µg/mL],MIC90 (Klebsiella pneumoniae [9]) [µg/mL],MIC (Klebsiella pneumoniae [11]) [µg/mL],MIC50 (Klebsiella pneumoniae [11]) [µg/mL],MIC90 (Klebsiella pneumoniae [11]) [µg/mL],MIC (Klebsiella pneumoniae [15]) [µg/mL],MIC50 (Klebsiella pneumoniae [15]) [µg/mL],MIC90 (Klebsiella pneumoniae [15]) [µg/mL],MIC (Escherichia coli [16]) [µg/mL],MIC (Escherichia coli [17]) [µg/mL],further results
CC(C)(O/N=C(\C(=O)N[C@@H]1C(=O)N2C(C(=O)[O-])=C(C[n+]3ccccc3)CS[C@H]12)c1csc(N)n1)C(=O)O [CEFTAZIDIME],0.125,16,32,96,0.5,24,32,64,32,24,48,128,4,48,128,16,192,> 256,64,128,MIC50 (Klebsiella pneumoniae [1]): 0.25 µg/mL; MIC90 (Klebsiella pneumoniae [1]): > 4 µg/mL; MIC (Escherichia coli [4]): 0.5 µg/mL; MIC (Klebsiella pneumoniae [5]): 0.38 µg/mL; MIC50 (Klebsiella pneumoniae [5]): 0.75 µg/mL; MIC90 (Klebsiella pneumoniae [5]): 1 µg/mL; MIC (Escherichia coli [6]): 0.25 µg/mL; MIC (Klebsiella pneumoniae [10]): 0.19 µg/mL; MIC50 (Klebsiella pneumoniae [10]): 0.38 µg/mL; MIC90 (Klebsiella pneumoniae [10]): 0.5 µg/mL; MIC (Klebsiella pneumoniae [12]): 0.25 µg/mL; MIC50 (Klebsiella pneumoniae [12]): 0.38 µg/mL; MIC90 (Klebsiella pneumoniae [12]): 0.5 µg/mL; MIC (Escherichia coli [13]): 0.5 µg/mL; MIC (Escherichia coli [14]): 0.5 µg/mL; MIC (Klebsiella pneumoniae [18]): 0.19 µg/mL; MIC50 (Klebsiella pneumoniae [18]): 0.25 µg/mL; MIC90 (Klebsiella pneumoniae [18]): 0.5 µg/mL
NCC[C@H](O)C(=O)N[C@@H]1C[C@H](N)[C@@H](O[C@H]2O[C@H](CN)[C@@H](O)[C@H](O)[C@H]2O)[C@H](O)[C@H]1O[C@H]1O[C@H](CO)[C@@H](O)[C@H](N)[C@H]1O [AMIKACIN],–,2,48,96,1,4,6,12,2,2,6,16,2,16,32,1.5,6,16,4,4,–
CO/N=C(\C(=O)N[C@@H]1C(=O)N2C(C(=O)O)=C(COC(C)=O)CS[C@H]12)c1csc(N)n1 [CEFOTAXIME],0.032,64,> 256,> 256,0.25,96,> 256,> 256,256,> 256,> 256,> 256,48,> 256,> 256,> 256,> 256,> 256,256,256,MIC50 (Klebsiella pneumoniae [1]): 0.047 µg/mL; MIC90 (Klebsiella pneumoniae [1]): > 1 µg/mL; MIC (Escherichia coli [4]): 0.125 µg/mL; MIC (Klebsiella pneumoniae [5]): 0.047 µg/mL; MIC50 (Klebsiella pneumoniae [5]): 0.125 µg/mL; MIC90 (Klebsiella pneumoniae [5]): > 1 µg/mL; MIC (Escherichia coli [6]): ≤ 0.06 µg/mL; MIC (Klebsiella pneumoniae [10]): 0.047 µg/mL; MIC50 (Klebsiella pneumoniae [10]): 0.047 µg/mL; MIC90 (Klebsiella pneumoniae [10]): 0.125 µg/mL; MIC (Klebsiella pneumoniae [12]): 0.047 µg/mL; MIC50 (Klebsiella pneumoniae [12]): 0.094 µg/mL; MIC90 (Klebsiella pneumoniae [12]): 0.094 µg/mL; MIC (Escherichia coli [13]): 0.125 µg/mL; MIC (Escherichia coli [14]): 0.125 µg/mL; MIC (Klebsiella pneumoniae [18]): 0.023 µg/mL; MIC50 (Klebsiella pneumoniae [18]): 0.023 µg/mL; MIC90 (Klebsiella pneumoniae [18]): 0.19 µg/mL
O=C(O)c1cn(C2CC2)c2cc(N3CCNCC3)c(F)cc2c1=O [CIPROFLOXACIN],–,0.38,1,6,≤ 0.125,–,> 32,> 32,≤ 0.125,–,> 32,> 32,0.032,16,> 32,–,> 32,> 32,≤ 0.125,≤ 0.125,–
CCN1CCN(C(=O)N[C@@H](C(=O)N[C@@H]2C(=O)N3[C@@H]2SC(C)(C)[C@@H]3C(=O)O)c2ccccc2)C(=O)C1=O [PIPERACILLIN],–,–,–,–,4,–,–,–,> 64,–,–,–,–,–,–,–,–,–,> 64,> 64,MIC (Klebsiella pneumoniae [19]): 4 µg/mL; MIC50 (Klebsiella pneumoniae [19]): 12 µg/mL; MIC90 (Klebsiella pneumoniae [19]): 24 µg/mL; MIC (Klebsiella pneumoniae [20]): 3 µg/mL; MIC50 (Klebsiella pneumoniae [20]): > 256 µg/mL; MIC90 (Klebsiella pneumoniae [20]): > 256 µg/mL; MIC (Klebsiella pneumoniae [21]): 3 µg/mL; MIC50 (Klebsiella pneumoniae [21]): 12 µg/mL; MIC90 (Klebsiella pneumoniae [21]): > 256 µg/mL; MIC (Klebsiella pneumoniae [22]): 32 µg/mL; MIC50 (Klebsiella pneumoniae [22]): 64 µg/mL; MIC90 (Klebsiella pneumoniae [22]): > 256 µg/mL; MIC (Klebsiella pneumoniae [23]): 2 µg/mL; MIC50 (Klebsiella pneumoniae [23]): 3 µg/mL; MIC90 (Klebsiella pneumoniae [23]): 12 µg/mL
C[C@]1(Cn2ccnn2)[C@H](C(=O)O)N2C(=O)C[C@H]2S1(=O)=O [TAZOBACTAM],–,–,–,–,–,–,–,–,–,–,–,–,–,–,–,–,–,–,–,–,MIC (Escherichia coli [24]): 4 µg/mL; MIC (Escherichia coli [25]): 16 µg/mL; MIC (Klebsiella pneumoniae [20]): > 64 µg/mL; MIC (Klebsiella pneumoniae [22]): > 64 µg/mL; MIC (Escherichia coli [26]): 4 µg/mL; MIC (Klebsiella pneumoniae [23]): 4 µg/mL; MIC (Escherichia coli [27]): 16 µg/mL

# Reference: ChEMBL document CHEMBL1629585, “Nationwide survey of CTX-M-type extended-spectrum beta-lactamases among Klebsiella pneumoniae isolates in Slovenian hospitals” (2009)
